Entries after “also recorded” stand apart in the source; their conditions may differ. Peptide text beside a SMILES is read from it.
How the values were obtained:
TRPV1 channel = tested on: TRPV1 channel; set-up: method as in 4 sources, ref [12]; anandamide and 2-AG ref [13],[14],[15],[16] ||| ref [88],[89] = [88]; PMID 27281200; doi:10.1038/nature17964; 88. Gao Y. Cao E. Julius D. Cheng Y. TRPV1 structures in nanodiscs reveal mechanisms of ligand and lipid action Nature 2016 534 347 351 10.1038/nature17964 27281200 PMC4911334 || [89]; PMID 37117175; doi:10.1038/s41467-023-38162-9; 89. Neuberger A. Oda M. Nikolaev Y.A. Nadezhdin K.D. Gracheva E.O. Bagriantsev S.N. Sobolevsky A.I. Human TRPV1 structure and inhibition by the analgesic SB-366791 Nat. Commun. 2023 14 2451 10.1038/s4 ||| ref [90] = [90]; PMID 38698206; doi:10.1038/s41594-024-01299-2; 90. Arnold W.R. Mancino A. Moss F.R. Frost A. Julius D. Cheng Y. Structural basis of TRPV1 modulation by endogenous bioactive lipids Nat. Struct. Mol. Biol. 2024 1 9 10.1038/s41594-024-01299-2 3869820 ||| ref [67] = [67]; PMID 29117570; doi:10.1016/j.celrep.2017.10.063; 67. Nersesyan Y. Demirkhanyan L. Cabezas-Bratesco D. Oakes V. Kusuda R. Dawson T. Sun X. Cao C. Cohen A.M. Chelluboina B. Oxytocin Modulates Nociception as an Agonist of Pain-Sensing TRPV1 Cell Rep. 2; conditions: cited from earlier work; for TRPV1 activation: capsaicin ref [12], anandamide and 2-AG ref [13],[14],[15],[16]; for TRPV1 channel state: vanilloid pocket, ref [90]
Source text: The transient receptor potential (TRP) channels family involves several subfamilies, including the vanilloid (TRPVs) group. TRPV1, a member of the TRPV subfamily, is a non-selective cationic homotetramer channel. It is known to be activated by various stimuli, including temperature, capsaicin (the principal compound in chili peppers), and endocannabinoids such as anandamide (AEA) and 2-arachidonoylglycerol (2-AG). The TRPV1 channel protein is found in the central (CNS) and peripheral nervous system (PNS). In the CNS, TRPV1 is expressed in the prefrontal cort ... || Molecular dynamics (MD) simulations allow studying protein dynamics at an atomic level under physiological conditions, enhancing our understanding of various proteins, including ion channels like TRPV1 [82]. These simulations provide insight into their function, conformational changes, and interactions with different ligands.

[1] = individuals with osteoarthritis; ref [99]; cited from earlier work
Source text: Capsaicin creams and patches have been used in the treatment of muscle pain, neuropathic pain, arthritis, and migraines. […] CNTX-4975 has been developed as a treatment option for pain in individuals with osteoarthritis.

[2] = ref [106]; cited from earlier work
Source text: Chronic pain is often accompanied by the development of depression. […] However, a significant challenge in utilizing RVD-Hp as a therapeutic agent lies in the inherent sensitivity of peptides to enzymatic degradation. […] Developing carriers that can stabilize RVD-Hp and facilitate its delivery to the brain is essent ...

human TRPV1 channel [3] = biological target: T1, human TRPV1 channel (Homo sapiens, UniProt Q8NER1); test: Whole-cell voltage-clamp recording of TRPV1 currents, HEK293 cells with human TRPV1-GFP; type: cell-based
T1 construct: host or cells: HEK293
T1 sequence (Q8NER1 whole entry): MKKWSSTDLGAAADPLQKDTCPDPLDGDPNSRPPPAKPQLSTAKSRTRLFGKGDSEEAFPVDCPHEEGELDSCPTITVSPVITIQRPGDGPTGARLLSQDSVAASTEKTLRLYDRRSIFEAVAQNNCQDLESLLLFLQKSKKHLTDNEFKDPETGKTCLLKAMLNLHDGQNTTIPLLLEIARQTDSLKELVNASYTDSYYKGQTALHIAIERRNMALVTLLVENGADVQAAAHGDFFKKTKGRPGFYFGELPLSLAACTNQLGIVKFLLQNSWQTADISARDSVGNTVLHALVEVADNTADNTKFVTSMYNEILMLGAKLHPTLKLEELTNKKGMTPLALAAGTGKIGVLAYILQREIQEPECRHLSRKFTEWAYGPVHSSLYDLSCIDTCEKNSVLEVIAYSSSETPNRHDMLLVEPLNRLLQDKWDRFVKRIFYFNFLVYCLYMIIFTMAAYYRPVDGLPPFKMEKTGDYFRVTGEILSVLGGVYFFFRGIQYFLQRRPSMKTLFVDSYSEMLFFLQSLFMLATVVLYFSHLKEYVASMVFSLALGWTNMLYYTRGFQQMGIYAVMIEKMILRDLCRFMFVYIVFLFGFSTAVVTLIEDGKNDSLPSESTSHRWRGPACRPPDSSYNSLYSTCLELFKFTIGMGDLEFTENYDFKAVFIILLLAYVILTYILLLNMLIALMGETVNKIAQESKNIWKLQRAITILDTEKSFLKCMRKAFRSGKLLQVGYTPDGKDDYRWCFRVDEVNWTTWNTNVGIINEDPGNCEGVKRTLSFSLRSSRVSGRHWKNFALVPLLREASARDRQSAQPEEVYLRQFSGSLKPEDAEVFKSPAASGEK
Method: (§1) Dr. Alejandro Maureira, Universidad Católica del Maule, Chile, generously provided HEK293 cells. The cells were cultured in T75 flasks (Corning Inc., Corning, NY, USA) in a humidified atmosphere at 37 °C with 5% CO2 in Dulbecco’s Modified Eagle Medium (DMEM) with high glucose (Cytiva, Marlborough, MA, USA), supplemented with 10% fetal bovine serum (Cytiva, Marlborough, MA, USA) and a mixture of 100 IU/mL penicillin and 100 µg/mL streptomycin (Corning Inc., Corning, NY, USA) in a CO2CELL incubator (MMM Group, Munich, Germany). This procedure was used to maintain the cells for all of the experiments.
(§2) HEK293 cells were transfected with the human TRPV1 channel coupled to GFP in its C-terminus (TRPV1-GFP, catalog #: RG217653, Origene, Rockville, MD, USA). […] Transfections were conducted using Lipofectamine 3000 (Invitrogen, Waltham, MA, USA), according to the manufacturer’s instructions. Experimental protocols were performed 24 h post-transfection.
Untransfected and transfected HEK293 cells with the human TRPV1-GFP were recorded using a whole-cell voltage clamp. Cells were cultured in 15 mm round coverslips pretreated with 0.1 mg/mL poly-L-lysine (Gibco, Billings, MT, USA) and transfected with TRPV1-GFP plasmid. TRPV1-GFP-positive cells were identified using a 405 nm LED light in a Nikon Eclipse Ts2 inverted microscope. Borosilicate pipettes (nº 1B150F-4, World Precision Instruments, Sarasota, FL, USA) of 2.8’5 MΩ were used. Pipettes were pulled with a P-97 Micropipette Puller (Sutter Instruments, Novato, CA, USA). The extracellular solution contained (in mM) 140 NaCl, 5 KCl, 2 CaCl2, 1 MgCl2, 10 HEPES, and 6 glucose at pH 7.4. The internal solution contained (in mM) 140 CsCl, 4 MgCl2, 10 EGTA, and 10 HEPES-CsOH at pH 7.3. All the experiments were recorded using a HEKA EPC9 amplifier. The holding potential was −80 mV. A 500 ms voltage ramp from −80 to 80 mV was applied to record TRPV1 currents. The sample frequency was 50 kHz, and the signals were filtered at 2.9 kHz using PatchMaster software. Data were analyzed using Clampfit v.7 software (Molecular Devices, San Jose, CA, USA). The extracellular solution and ligands were administered using a VC-8 perfusion system (~2 mL/s, Warner Instruments, Holliston, MA, USA). We used capsaicin (Cayman Chemicals, nº 92350), SB366791 (nº 11019, Cayman Chemicals, Ann Arbor, MI, USA), and RVD-Hp (Synbio Technologies, Monmouth Junction, NJ, USA). We used dimethyl sulfoxide (DMSO, Sigma-Aldrich, St. Louis, MO, USA) and untransfected cells as controls. Electrophysiological recordings were performed at room temperature.
(§3) The data were analyzed and plotted using GraphPad software v10.0.2. We used the Shapiro–Wilk test to determine the data distribution. […] Statistically significant values were considered when p values were * p < 0.05, ** p < 0.01, *** p < 0.001, and **** p < 0.0001.

human TRPV1 channel [4] = biological target: T1, human TRPV1 channel; test: Calcium imaging (Fura Red-AM), HEK293 cells transfected with hTRPV1-GFP; type: cell-based; conditions: pH 7.4, room temperature
Method: as §1, §2, §3

rats = conditions: cited from earlier work
Source text: Despite this, evidence of a direct interaction between Hp and the TRPV1 channel is lacking. We speculate that Hp binds and activates TRPV1, possibly engaging the same binding site as RVD-Hp. […] Thus, RVD-Hp emerges and holds potential as a novel modulator for non-opioid analgesia and anxiety treatment. […] Moreover, since RVD-Hp effectively blocks the open TRPV1 channel, it presents a promising approach to inhibit the population of TRPV1 channels that are pathologically over-activated, thereby ... || (+ 1 further places)

[5] = biological target: human TRPV1 channel coupled to GFP in its C-terminus (human) (UniProt Q8NER1)
Chain of human TRPV1 channel coupled to GFP in its C-terminus (human) (Q8NER1 whole entry): as above

In the case of `CCCCC/C=C\C/C=C\C/C=C\C/C=C\CCCC(=O)OC(CO)CO` [2-arachidonoylglycerol], the TRPV1 activation (TRPV1 channel) is listed as “activated”.

For `COc1cc(CNC(=O)CCCC/C=C/C(C)C)ccc1O` [CNTX-4975], the Adverse effects [1] is listed as “nausea, hypotension, oral hypoesthesia, and erythema”.

In the case of `CC(C)C[C@H](NC(=O)[C@H](CC(C)C)NC(=O)[C@H](CCCCN)NC(=O)[C@H](Cc1ccccc1)NC(=O)[C@H](CC(N)=O)NC(=O)[C@@H](NC(=O)[C@@H]1CCCN1C(=O)[C@H](CC(=O)O)NC(=O)[C@@H](NC(=O)[C@@H](N)CCCNC(=N)N)C(C)C)C(C)C)C(=O)N[C@@H](CO)C(=O)N[C@@H](Cc1cnc[nH]1)C(=O)O` [RVD-Hp, RVD-hemopressin] (H-RVDPVNFKLLSH-OH), the “Blood–brain barrier crossing” value [2] is given as “cannot cross the blood–brain barrier”, the Stability in plasma [2] is given as “low stability in plasma” and the IC50 (human TRPV1 channel [3]) is given as 18.6 µM.

In the case of `COc1cccc(NC(=O)/C=C/c2ccc(Cl)cc2)c1` [SB366791], the “TRPV1 binding mode of antagonists” value (TRPV1 channel; requiring four molecules to induce channel closure, ref [88],[89]) is listed as “bind to the vanilloid pocket and compete with capsaicin”, the “Current of compound alone compared with Cap-induced TRPV1 current” value (human TRPV1 channel [3]; 10 µM alone vs 1 µM Cap, ***** p < 0.0001) is listed as “significantly different from the Cap-induced TRPV1 current” and the “Current of compound alone compared with control” value (human TRPV1 channel [3]; 10 µM alone vs control (n: 7)) is listed as “not different from the control”. The “TRPV1 currents induced by the compound alone” value (human TRPV1 channel [3]; 10 µM alone, +80 mV, RVD-Hp n: 4, SB366791 n: 3, room temperature) was “Neither 10 µM RVD-Hp nor 10 µM SB366791 alone induced TRPV1 currents”, the “Block of Cap-induced TRPV1 currents” value (human TRPV1 channel [3]; 10 µM with 1 µM Cap, +80 mV, RVD-Hp n: 4 (* p < 0.0214), SB366791 n: 4 (**** p < 0.0001), comparison to capsaicin, room temperature) was “blocked” and the “Block of Cap-induced increase in intracellular Ca^2+ concentration” value (human TRPV1 channel [4]; 1 µM Cap + 10 µM RVD-Hp (n: 60, * p < 0.032) or 10 µM SB366791 (n: 20, * p < 0.0113), comparison to Cap) was “partially blocked”. For the same molecule, the “Effect on intracellular Ca^2+ of the compound alone” value (human TRPV1 channel [4]; 10 µM alone, no Cap, RVD-Hp n: 59, SB366791 n: 51) was “Neither 10 µM RVD-Hp nor 10 µM SB366791 augmented the intracellular Ca^2+” and the “Effect on Hp-induced anxious behavior” value (rats; SB366791 on Hp-induced behavior, ref [8]) was “mitigating impact; also recorded: mitigated”.

For `CCCCC/C=C\C/C=C\C/C=C\C/C=C\CCCC(=O)NCCO` [anandamide], the TRPV1 activation (TRPV1 channel) is given as “activated”.

For Phosphoinositide, the TRPV1 channel state (TRPV1 channel) is listed as “favor the close state of the TRPV1 channel”.

For hemopressin, the “Anxiety-like behavior (Hp in rats)” value (rats; rats, ref [8],[9]) is listed as “induces anxiety-like behavior in rats” and the Anxiety-/depressive-like behavior (rats; rodent models, ref [8]) is listed as “induce anxiogenic and depressive-like behaviors”.

In the case of lysophosphatidic acid, the TRPV1 channel state (TRPV1 channel) is listed as “induces channel opening”.

For oxytocin, the “TRPV1 activation and nociception (oxytocin)” value (TRPV1 channel; ref [67]) is given as “activate the TRPV1 channel and modulate nociception”.

In the case of phosphatidylinositol 4,5-biphosphate, the TRPV1 channel state (TRPV1 channel) is given as “favor the close state of the TRPV1 channel”.

Work on RVDPVNFKLLSH [RVD-hemopressin] yielded a whole-cell voltage clamp of HEK293 cells expressing TRPV1-GFP: inhibition of the TRPV1 current induced by 1 µM capsaicin (at +80 mV), RVD-Hp at 1, 10, 20 and 50 µM; IC50 [5] of 18.6 µM.
